Experimental data from patent publication US20240165244A1 (Prelude Therapeutics Incorporated, priority 2022, published 2024).

Tests used:
SMARCA2 = target: T1, SMARCA2 (Homo sapiens, UniProt P51531); experiment: SMARCA2 HiBiT degradation assay in HeLa cells; format: cell-based; conditions: 18 hours, highest concentration 10 μM
T1 construct: SMARCA2-HiBiT knock-in Hela monoclonal cell (CS302366); host or cells: HeLa monoclonal cells with heterozygous HiBiT knock-in at the endogenous SMARCA2 locus
T1 sequence (P51531 whole entry): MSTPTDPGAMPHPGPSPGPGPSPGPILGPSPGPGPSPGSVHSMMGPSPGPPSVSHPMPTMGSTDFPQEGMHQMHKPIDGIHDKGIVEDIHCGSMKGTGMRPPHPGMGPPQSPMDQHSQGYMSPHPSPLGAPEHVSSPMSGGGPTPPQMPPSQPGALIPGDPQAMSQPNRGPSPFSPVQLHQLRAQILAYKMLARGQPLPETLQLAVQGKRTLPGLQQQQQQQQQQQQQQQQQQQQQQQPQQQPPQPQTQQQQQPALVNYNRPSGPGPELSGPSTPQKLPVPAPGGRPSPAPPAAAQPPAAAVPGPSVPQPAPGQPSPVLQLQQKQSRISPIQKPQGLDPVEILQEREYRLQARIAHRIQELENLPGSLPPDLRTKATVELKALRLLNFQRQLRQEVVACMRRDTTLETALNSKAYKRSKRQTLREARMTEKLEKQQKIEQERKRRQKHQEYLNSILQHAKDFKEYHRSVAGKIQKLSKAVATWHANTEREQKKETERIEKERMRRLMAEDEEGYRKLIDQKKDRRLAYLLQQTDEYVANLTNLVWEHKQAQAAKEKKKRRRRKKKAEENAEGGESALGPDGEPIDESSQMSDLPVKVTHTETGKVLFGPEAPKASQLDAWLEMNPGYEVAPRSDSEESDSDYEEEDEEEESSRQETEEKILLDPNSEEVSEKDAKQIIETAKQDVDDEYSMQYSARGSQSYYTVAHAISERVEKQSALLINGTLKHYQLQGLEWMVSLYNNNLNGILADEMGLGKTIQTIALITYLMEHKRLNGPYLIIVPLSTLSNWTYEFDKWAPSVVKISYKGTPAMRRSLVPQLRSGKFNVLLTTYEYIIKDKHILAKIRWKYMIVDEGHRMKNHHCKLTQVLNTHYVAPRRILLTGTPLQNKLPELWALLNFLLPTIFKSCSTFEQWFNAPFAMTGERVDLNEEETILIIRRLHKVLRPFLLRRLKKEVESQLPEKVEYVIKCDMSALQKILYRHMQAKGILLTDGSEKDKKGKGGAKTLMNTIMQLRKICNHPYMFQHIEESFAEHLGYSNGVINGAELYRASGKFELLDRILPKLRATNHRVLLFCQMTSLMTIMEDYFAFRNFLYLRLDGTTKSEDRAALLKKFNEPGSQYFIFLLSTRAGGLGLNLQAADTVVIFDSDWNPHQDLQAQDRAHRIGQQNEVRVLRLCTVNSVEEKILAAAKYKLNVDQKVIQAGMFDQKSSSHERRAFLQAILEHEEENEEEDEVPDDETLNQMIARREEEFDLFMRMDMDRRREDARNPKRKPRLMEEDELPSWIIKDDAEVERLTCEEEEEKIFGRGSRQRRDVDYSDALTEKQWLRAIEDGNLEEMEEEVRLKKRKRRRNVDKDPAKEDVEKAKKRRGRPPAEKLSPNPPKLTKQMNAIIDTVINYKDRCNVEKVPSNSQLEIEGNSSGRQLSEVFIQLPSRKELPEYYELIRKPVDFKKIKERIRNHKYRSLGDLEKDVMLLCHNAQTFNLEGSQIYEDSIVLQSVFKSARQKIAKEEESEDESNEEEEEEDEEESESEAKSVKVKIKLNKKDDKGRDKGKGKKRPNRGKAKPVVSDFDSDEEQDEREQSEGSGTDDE
Procedure, shortened: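 Degradation was read as Nano-Glo HiBiT lytic luminescence (30-60 min, RT) and fitted to curves. Compounds in 3-fold dilutions up to 10 μM were applied for 18 h at 37 °C. Cells were 2500/well monoclonal HeLa with a heterozygous C-terminal HiBiT tag on SMARCA2.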

SMARCA4 = target: T2, SMARCA4 (Homo sapiens, UniProt P51532); experiment: SMARCA4 HiBiT degradation assay in HeLa cells; format: cell-based; conditions: 18 hours, highest concentration 10 μM
T2 construct: SMARCA4-HiBiT knock-in Hela monoclonal cell (CS3023226); host or cells: HeLa monoclonal cells with heterozygous HiBiT knock-in at the endogenous SMARCA4 locus
T2 sequence (P51532 whole entry): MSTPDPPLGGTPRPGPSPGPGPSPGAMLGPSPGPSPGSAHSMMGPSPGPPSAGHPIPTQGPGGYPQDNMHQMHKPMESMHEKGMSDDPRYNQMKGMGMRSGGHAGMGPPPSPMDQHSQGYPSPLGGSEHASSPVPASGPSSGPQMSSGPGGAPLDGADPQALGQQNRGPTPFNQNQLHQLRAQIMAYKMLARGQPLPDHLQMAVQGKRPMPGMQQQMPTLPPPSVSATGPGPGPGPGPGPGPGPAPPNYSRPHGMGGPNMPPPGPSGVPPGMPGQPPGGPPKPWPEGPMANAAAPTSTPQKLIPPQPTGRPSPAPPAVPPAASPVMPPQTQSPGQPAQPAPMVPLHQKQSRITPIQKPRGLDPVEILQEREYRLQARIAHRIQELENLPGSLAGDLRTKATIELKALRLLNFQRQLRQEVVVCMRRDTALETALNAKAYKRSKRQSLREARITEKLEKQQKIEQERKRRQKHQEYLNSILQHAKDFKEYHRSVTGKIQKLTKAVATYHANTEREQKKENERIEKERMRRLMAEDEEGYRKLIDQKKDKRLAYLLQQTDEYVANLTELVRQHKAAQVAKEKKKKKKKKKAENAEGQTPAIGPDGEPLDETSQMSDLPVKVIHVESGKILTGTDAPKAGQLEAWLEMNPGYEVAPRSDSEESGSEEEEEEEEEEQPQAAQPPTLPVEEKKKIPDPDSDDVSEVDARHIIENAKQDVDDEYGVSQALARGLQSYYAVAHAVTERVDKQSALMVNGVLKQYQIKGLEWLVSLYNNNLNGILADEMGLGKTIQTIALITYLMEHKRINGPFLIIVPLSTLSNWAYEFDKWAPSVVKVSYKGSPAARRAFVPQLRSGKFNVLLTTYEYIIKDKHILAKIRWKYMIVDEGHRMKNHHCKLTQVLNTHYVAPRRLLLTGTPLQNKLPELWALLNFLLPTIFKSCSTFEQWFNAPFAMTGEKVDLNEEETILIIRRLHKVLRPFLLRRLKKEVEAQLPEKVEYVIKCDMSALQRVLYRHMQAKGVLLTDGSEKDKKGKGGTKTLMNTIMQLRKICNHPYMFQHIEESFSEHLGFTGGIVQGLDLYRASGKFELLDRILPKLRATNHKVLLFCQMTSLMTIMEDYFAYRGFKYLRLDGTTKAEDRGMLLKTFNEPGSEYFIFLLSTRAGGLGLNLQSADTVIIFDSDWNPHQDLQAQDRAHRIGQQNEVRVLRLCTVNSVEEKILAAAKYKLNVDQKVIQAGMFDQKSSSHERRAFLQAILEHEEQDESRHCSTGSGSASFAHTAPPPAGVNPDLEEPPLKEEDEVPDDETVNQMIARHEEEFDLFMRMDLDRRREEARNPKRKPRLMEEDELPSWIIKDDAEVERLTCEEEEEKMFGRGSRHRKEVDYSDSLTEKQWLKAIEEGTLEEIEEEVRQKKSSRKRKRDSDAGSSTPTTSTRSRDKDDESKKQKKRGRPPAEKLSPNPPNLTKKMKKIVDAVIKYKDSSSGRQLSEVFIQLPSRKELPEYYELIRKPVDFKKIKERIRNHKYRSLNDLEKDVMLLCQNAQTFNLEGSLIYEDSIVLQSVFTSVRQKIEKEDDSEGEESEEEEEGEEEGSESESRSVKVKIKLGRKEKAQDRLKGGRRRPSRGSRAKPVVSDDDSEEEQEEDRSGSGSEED
Procedure, shortened: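 HeLa monoclonal cells with HiBiT knocked into SMARCA4 were seeded at 2500 cells/well, dosed with compound and incubated 18 hours at 37° C. HiBiT signal reported remaining SMARCA4 protein, and values came from curve fitting.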

[1] = tested on: SMARCA4 mutated cancer cells; conditions: Vangamudi et al. Cancer Res 2015; cited from earlier work

| SMILES | DC50 (SMARCA2) | Dmax (SMARCA2) | DC50 (SMARCA4) | Dmax (SMARCA4) | effects on cell proliferation inhibition [1] |
| --- | --- | --- | --- | --- | --- |
| CC[C@@]12CNc3nnc(-c4cccc(F)c4O)cc3N1C[C@H](Oc1nc(C)c(CN3CCC(c4ccc5c(c4)C(=O)N([C@H]4CCC(=O)NC4=O)C5)CC3)c(C)n1)C2 [Example 102, (S)-3-(6-(1-((2-(((6aR,8R)-6a-ethyl-2-(3-fluoro-2-hydroxyphenyl)-5,6,6a,7,8,9-hexahydropyrrolo[1′,2′:4,5]pyrazino[2,3-c]pyridazin-8-yl)oxy)-4,6-dimethylpyrimidin-5-yl)methyl)piperidin-4-yl)-1-oxoisoindolin-2-yl)piperidine-2,6-dione] | < 100 nM | > 75% | > 1000 nM | < 50% | – |
| CC[C@]12CNc3nnc(-c4cccc(F)c4O)cc3N1C[C@H](Oc1cnc(CN3CCC(c4ccc5c(c4)C(=O)N([C@H]4CCC(=O)NC4=O)C5)CC3)cn1)C2 [Example 103, (S)-3-(6-(1-((5-(((6aS,8R)-6a-ethyl-2-(3-fluoro-2-hydroxyphenyl)-5,6,6a,7,8,9-hexahydropyrrolo[1′,2′:4,5]pyrazino[2,3-c]pyridazin-8-yl)oxy)pyrazin-2-yl)methyl)piperidin-4-yl)-1-oxoisoindolin-2-yl)piperidine-2,6-dione] | < 100 nM | > 75% | < 100 nM | 50 to 75% | – |
| CC[C@]12CNc3nnc(-c4cccc(F)c4O)cc3N1C[C@H](Oc1cnc(CN3CCC(c4ccc5c(c4)C(=O)N([C@H]4CCC(=O)NC4=O)C5)CC3)c(C)c1)C2 [Example 104, (S)-3-(6-(1-((5-(((6aS,8R)-6a-ethyl-2-(3-fluoro-2-hydroxyphenyl)-5,6,6a,7,8,9-hexahydropyrrolo[1′,2′:4,5]pyrazino[2,3-c]pyridazin-8-yl)oxy)-3-methylpyridin-2-yl)methyl)piperidin-4-yl)-1-oxoisoindolin-2-yl)piperidine-2,6-dione] | < 100 nM | > 75% | < 100 nM | 50 to 75% | – |
| O=C(/C=C/N1C[C@H]2C[C@@H]1CN2c1ccccn1)c1ccccc1O [PFI-3] | – | – | – | – | none to minor effects |

Second part, led by results:

| DC50 (SMARCA2) | Dmax (SMARCA2) | DC50 (SMARCA4) | Dmax (SMARCA4) | SMILES | effects on cell proliferation inhibition [1] |
| --- | --- | --- | --- | --- | --- |
| < 100 nM | > 75% | 100 to 1000 nM | < 50% | CC[C@@]12CNc3nnc(-c4cccc(F)c4O)cc3N1C[C@H](Oc1ncc(CN3CCC(c4ccc5c(c4)C(=O)N([C@H]4CCC(=O)NC4=O)C5)CC3)c(C)n1)C2 [Example 105, (S)-3-(6-(1-((2-(((6aR,8R)-6a-ethyl-2-(3-fluoro-2-hydroxyphenyl)-5,6,6a, 7,8,9-hexahydropyrrolo[1′,2′:4,5]pyrazino[2,3-c]pyridazin-8-yl)oxy)-4-methylpyrimidin-5-yl)methyl)piperidin-4-yl)-1-oxoisoindolin-2-yl)piperidine-2,6-dione] | – |
| < 100 nM | > 75% | 100 to 1000 nM | < 50% | CC[C@@]12CNc3nnc(-c4cccc(F)c4O)cc3N1C[C@H](Oc1cc(C)c(CN3CCC(c4ccc5c(c4)C(=O)N(C4CCC(=O)NC4=O)C5)CC3)cn1)C2 (stereo partly drawn) [Example 106, 3-(6-(1-((6-(((6aR,8R)-6a-ethyl-2-(3-fluoro-2-hydroxyphenyl)-5,6,6a,7,8,9-hexahydropyrrolo[1′,2′:4,5]pyrazino[2,3-c]pyridazin-8-yl)oxy)-4-methylpyridin-3-yl)methyl)piperidin-4-yl)-1-oxoisoindolin-2-yl)piperidine-2,6-dione] | – |
